Data published in patent US5514662A, “Use of amphotericin B derivatives as protease inhibitors” (priority 1991, dated 1996).
Where two headings read alike, the source gives them in different places.

Experiments:
HIV (cellular viraemia) = experiment: Cellular viraemia of AIDS patients' lymphocytes (p24 in supernatants); format: cell-based
Procedure: Lymphocytes from AIDS patients (<200CD4) are isolated on a Ficoll gradient using heparinised blood. The cells are taken up in RPMI 1640 medium containing antibiotics, 10 U/ml of recombinant IL2 (Boeringher) and anti-interferon alpha serum (anti-IFNα, Sigma) plus 10% of foetal calf serum. The cells are cultured in 24-well plates in an amount of 5×10^5 cells per well for the first concentration and then subjected to 5 fold serial dilutions in the same medium. Half of the medium is replaced twice weekly. Every week, 3×10^5 fresh allogeneic PBMCs, derived from healthy donors, are added to the cultures. The cultures are kept for 28 days in the presence of varying concentrations of DABF-AmB. Vital production is measured weekly by assaying the protein p24 in the supernatants. Each culture and each assay are carried out in duplicate.
The symbols (-) denote that the amount of p24 detected is at least 95% less than the values obtained in the untreated control cultures. […] The results obtained in the LOU patient indicates either a resistance of the virus to the product, or a too high initial viral content. These experiments made it possible to evaluate the IC50 for DABF-AmB at between 1 and 5 μM for the different viral isolates (IC50=Concentrationof the product inhibiting 50% of the p24 titer in the culture supernatants, for a patient cells dilution corresponding to a viral content equivalent to 10TCID50.

protease p10 = protease p10 (Human immunodeficiency virus type 1 (BRU ISOLATE), UniProt P03367); experiment: Activity on recombinant protease p10; format: biochemical; conditions: 1 μM for DABF-AmB
Procedure: (§1) DABF-AmB was tested, at a concentration of 1 μM, on various proteases (papain, chymotrypsin, kallicrein, leucocyte elastase, cathopsin D and recombinant protease p10) under conditions and in the presence of substrates appropriate for each of the proteases tested.

gp120 = experiment: Membrane expression of gp120 in HIV-1 infected Jurkat and CEM cells; format: cell-based; conditions: 10 μM continuous, both cell lines, 8th day
Procedure: Membrane expression of CD4 and gp120 is measured by means of the monoclonal antibodies OKT4 (0,5 μg/ml), 110-4 (2 μg/ml) respectively, which are stained using a […].
The fluorescence is measured by means of a FACSTAR cell counter (BECTON DICKINSON, MOUNTAIN VIEW, Calif.). The results are expressed as mean fluorescence intensity.
The anti-gpl10 monoclonal antibody 110-4 (GENETIC SYSTEMS CORP., Seattle, Wash.) also recognizes gP120 at the surface of the T cells.
Immunofluorescence analyses are carried out on the 8th day of the infection in order to verify whether the inhibition of HIV replication by DABF-AmB results in 10 a reduced membrane expression of viral antigens.

kallicrein = experiment: Activity of DABF-AmB on various proteases: kallicrein; format: biochemical; conditions: 1 μM, results not shown
Procedure: as §1

HRV14 = experiment: Cytopathogenic effect of HRV14 in HeLa-Ohio cells; format: cell-based
Procedure: HeLa-Ohio cells cultured until they have become confluent, are infected with a suspension of HRV14 virus. The cytopathogenic effect of the virus is evaluated by staining the cells with a 0.5% solution of crystal violet and 20% of methanol; after rinsing the plates with water, the optical density is read at 550 nm.
For the rest of the experiment, the cells are infected with a viral suspension with a titre such that 50% of the cells are killed after 3 days on control cells not receiving any treatment. 1 hour after the infection, the test product (AmB or DABF-AmB) is added at concentrations ranging from 0.03 to 100 μM. The percentage inhibition of the cytopathogenic effect is determined as follows:
OD (treated infected cells)-OD (infected cells)!
OD (healthy cells)-OD (infected cells)!
The effect of the addition of DABF-AmB was tested at various times: preincubation of the cells with DABF-AmB before the viral infection; addition of DABF-AmB at the time of the infection; addition of DABF-AmB after the infection, during the period of viral proliferation.

cathopsin D = experiment: Activity of DABF-AmB on various proteases: cathopsin D; format: biochemical; conditions: 1 μM
Procedure: as §1

HIV = experiment: Viral expression in reactivated infected CD4 cells from patients (p24 ELISA); format: cell-based; conditions: Human immunodeficiency virus 1, 240 h, 7 patients tested
Text: The activation of infected CD4+cells is known to stimulate the production of the virus. The effect of DABF-AmB was therefore tested on the vital expression in cells from AIDS patients reactivated in vitro by anti-CD3, by anti-CD28, by PMA (phorbol myristate acetate) or by soluble anti-CD3.
PBMCs from patients (<300 CD4) were isolated on a Ficoll gradient using blood. The CD4 cells were isolated by cell sorting using a flow cytometer (FACS-Star, Becton-Dickinson, Mountain View, Calif.) after OKT4-FITC labelling. The CD4 cells were washed again and then re-inoculated as indicated in 5 and activated either with anti-CD3 or anti-CD28 antibodies or with PMA. Viral expression was evaluated after 10 days by ELISA assay of p24 in the supernatants.

trypsin = target: T1, trypsin (Bos taurus, UniProt P00760); experiment: Inhibition of trypsin; format: biochemical
T1 sequence (P00760 24-246): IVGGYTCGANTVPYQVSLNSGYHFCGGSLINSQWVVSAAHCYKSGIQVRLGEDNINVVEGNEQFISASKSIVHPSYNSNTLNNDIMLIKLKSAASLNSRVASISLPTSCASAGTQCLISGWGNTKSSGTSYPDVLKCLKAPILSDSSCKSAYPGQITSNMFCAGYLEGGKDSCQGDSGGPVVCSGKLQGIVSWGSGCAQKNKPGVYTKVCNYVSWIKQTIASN

Compound: C[C@@H]1[C@H](O)[C@@H](C)/C=C/C=C/C=C/C=C/C=C/C=C/C=C/[C@H](O[C@@H]2O[C@H](C)[C@@H](O)[C@H](NCC(=O)[C@@H](O)[C@@H]3OC(c4ccccc4)OC[C@H]3O)[C@@H]2O)C[C@@H]2O[C@](O)(C[C@@H](O)C[C@@H](O)[C@H](O)CC[C@@H](O)C[C@@H](O)CC(=O)O[C@H]1C)C[C@H](O)[C@H]2C(=O)O (stereo partly drawn) [DABF-AmB, 1-deoxy-1-amino-4,6-O-benzylidene-D-fructosyl-AmB]
- number of patients in which cellular viraemia is inhibited (HIV (cellular viraemia); 8 different patients): 7 out of 8
- IC50 (HIV (cellular viraemia); Human immunodeficiency virus 1, Lymphocyte, read-out: IC50 (concentration inhibiting 50% of the p24 titer in the culture supernatants)): 1 to 5 µM
- cellular viraemia (p24) (HIV (cellular viraemia); patient SAM + MS, day 0): - (the amount of p24 detected is at least 95% less than the values obtained in the untreated control cultures)
- cellular viraemia (p24) (HIV (cellular viraemia); patient SAM + MS, day 14): - (the amount of p24 detected is at least 95% less than the values obtained in the untreated control cultures)
- cellular viraemia (p24) (HIV (cellular viraemia); patient five + MS, day 0): - (the amount of p24 detected is at least 95% less than the values obtained in the untreated control cultures)
- cellular viraemia (p24) (HIV (cellular viraemia); patient five + MS, day 7): - (the amount of p24 detected is at least 95% less than the values obtained in the untreated control cultures)
- cellular viraemia (p24) (HIV (cellular viraemia); patient four + MS, day 0): - (the amount of p24 detected is at least 95% less than the values obtained in the untreated control cultures)
- cellular viraemia (p24) (HIV (cellular viraemia); patient four + MS, day 7): - (the amount of p24 detected is at least 95% less than the values obtained in the untreated control cultures)
- cellular viraemia (p24) (HIV (cellular viraemia); patient four + MS, day 14): - (the amount of p24 detected is at least 95% less than the values obtained in the untreated control cultures)
- cellular viraemia (p24) (HIV (cellular viraemia); patient four + MS, day 21): - (the amount of p24 detected is at least 95% less than the values obtained in the untreated control cultures)
- cellular viraemia (p24) (HIV (cellular viraemia); patient four + MS, day 28): - (the amount of p24 detected is at least 95% less than the values obtained in the untreated control cultures)
- cellular viraemia (p24) (HIV (cellular viraemia); patient one + MS, day 0): - (the amount of p24 detected is at least 95% less than the values obtained in the untreated control cultures)
- cellular viraemia (p24) (HIV (cellular viraemia); patient one + MS, day 7): - (the amount of p24 detected is at least 95% less than the values obtained in the untreated control cultures)
- cellular viraemia (p24) (HIV (cellular viraemia); patient seven + MS, day 0): - (the amount of p24 detected is at least 95% less than the values obtained in the untreated control cultures)
- cellular viraemia (p24) (HIV (cellular viraemia); patient seven + MS, day 14): - (the amount of p24 detected is at least 95% less than the values obtained in the untreated control cultures)
- cellular viraemia (p24) (HIV (cellular viraemia); patient six + MS, day 0): - (the amount of p24 detected is at least 95% less than the values obtained in the untreated control cultures)
- cellular viraemia (p24) (HIV (cellular viraemia); patient six + MS, day 14): - (the amount of p24 detected is at least 95% less than the values obtained in the untreated control cultures)
- cellular viraemia (p24) (HIV (cellular viraemia); patient three + MS, day 0): - (the amount of p24 detected is at least 95% less than the values obtained in the untreated control cultures)
- cellular viraemia (p24) (HIV (cellular viraemia); patient three + MS, day 7): - (the amount of p24 detected is at least 95% less than the values obtained in the untreated control cultures)
- cellular viraemia (p24) (HIV (cellular viraemia); patient three + MS, day 14): - (the amount of p24 detected is at least 95% less than the values obtained in the untreated control cultures)
- cellular viraemia (p24) (HIV (cellular viraemia); patient three + MS, day 21): - (the amount of p24 detected is at least 95% less than the values obtained in the untreated control cultures)
- cellular viraemia (p24) (HIV (cellular viraemia); patient three + MS, day 28): - (the amount of p24 detected is at least 95% less than the values obtained in the untreated control cultures)
- cellular viraemia (p24) (HIV (cellular viraemia); patient two + MS, day 0): - (the amount of p24 detected is at least 95% less than the values obtained in the untreated control cultures)
- cellular viraemia (p24) (HIV (cellular viraemia); patient two + MS, day 7): - (the amount of p24 detected is at least 95% less than the values obtained in the untreated control cultures)
- cellular viraemia (p24) (HIV (cellular viraemia); patient two + MS, day 14): - (the amount of p24 detected is at least 95% less than the values obtained in the untreated control cultures)
- cellular viraemia (p24) (HIV (cellular viraemia); patient two + MS, day 21): - (the amount of p24 detected is at least 95% less than the values obtained in the untreated control cultures)
- cellular viraemia (p24) (HIV (cellular viraemia); patient two + MS, day 28): - (the amount of p24 detected is at least 95% less than the values obtained in the untreated control cultures)
- inhibition of protease p10 (protease p10): does not inhibit
- membrane expression of gp120 (gp120): substantially reduces
- inhibition of kallicrein (kallicrein): inhibits
- concentration from which cytopathogenic effects are completely inhibited (HRV14; added 1 hour after infection): ≥ 10 µM
- IC50 (HRV14; added 1 hour after infection, read-out: IC50 (50% inhibition of the cytopathogenic effect)): 5 µM
- stage of action on HRV14 by time of addition (HRV14; addition before, at time of, or after infection): acts essentially during viral proliferation
- inhibition of cathopsin D (cathopsin D): does not inhibit
- inhibition at 10 µM (HIV): > 90%
- inhibition at 1 µM (trypsin; 1 μM, FIG. 1, read-out: % inhibition of trypsin relative to a control without inhibitor): > 60%
- inhibition at 100 µM (trypsin; 10^-4 M): 100%
- inhibition of trypsin (in words) (trypsin; 10^-4 M): Total inhibition
- inhibition at 10 µM (trypsin; 10^-5 M): 95%
- inhibition at 1 µM (trypsin; 10^-6 M, read-out: % of inhibition of trypsin): 50%
- inhibition at 0.1 µM (trypsin; 10^-7 M): 20%
